Source: ChEMBL document CHEMBL1147101, “Development and persistence of antimicrobial resistance in Pseudomonas aeruginosa: a longitudinal observation in mechanically ventilated patients” (Antimicrob Agents Chemother, 2007)
Activity calls are given as the source filed them. The calls are words filed in the database; no cut-off is given here.

What was measured:
Format in all cases: functional, organism-based
Conditions in all cases: Trachea
Pseudomonas aeruginosa [1] = experiment: Antimicrobial activity against Pseudomonas aeruginosa 5G3 tracheal isolates from mechanically ventilated chronic respiratory insufficiency patient
Pseudomonas aeruginosa [2] = experiment: Antimicrobial activity against Pseudomonas aeruginosa P21.21 tracheal isolates from mechanically ventilated tuberculosis patient
Pseudomonas aeruginosa [3] = experiment: Antimicrobial activity against Pseudomonas aeruginosa 1B9 tracheal isolates from mechanically ventilated tuberculosis patient
Pseudomonas aeruginosa [4] = experiment: Antimicrobial activity against Pseudomonas aeruginosa 24E5 tracheal isolates from mechanically ventilated chronic respiratory insufficiency patient
Pseudomonas aeruginosa [5] = experiment: Antimicrobial activity against Pseudomonas aeruginosa 65.68-2 tracheal isolates from mechanically ventilated tuberculosis patient
Pseudomonas aeruginosa [6] = experiment: Antimicrobial activity against Pseudomonas aeruginosa 2A5 tracheal isolates from mechanically ventilated tuberculosis patient
Pseudomonas aeruginosa [7] = experiment: Antimicrobial activity against Pseudomonas aeruginosa 8B11 tracheal isolates from mechanically ventilated chronic respiratory insufficiency patient
Pseudomonas aeruginosa [8] = experiment: Antimicrobial activity against Pseudomonas aeruginosa 22E1 tracheal isolates from mechanically ventilated chronic respiratory insufficiency patient
Pseudomonas aeruginosa [9] = experiment: Antimicrobial activity against Pseudomonas aeruginosa 2A7 tracheal isolates from mechanically ventilated tuberculosis patient
Pseudomonas aeruginosa [10] = experiment: Antimicrobial activity against Pseudomonas aeruginosa 5F8 tracheal isolates from mechanically ventilated chronic respiratory insufficiency patient
Pseudomonas aeruginosa [11] = experiment: Antimicrobial activity against Pseudomonas aeruginosa 15G2 tracheal isolates from mechanically ventilated chronic respiratory insufficiency patient
Pseudomonas aeruginosa [12] = experiment: Antimicrobial activity against Pseudomonas aeruginosa 13E1 tracheal isolates from mechanically ventilated chronic respiratory insufficiency patient
Pseudomonas aeruginosa [13] = experiment: Antimicrobial activity against Pseudomonas aeruginosa 65.36-1 tracheal isolates from mechanically ventilated tuberculosis patient
Pseudomonas aeruginosa [14] = experiment: Antimicrobial activity against Pseudomonas aeruginosa 12A7 tracheal isolates from mechanically ventilated chronic respiratory insufficiency patient
Pseudomonas aeruginosa [15] = experiment: Antimicrobial activity against Pseudomonas aeruginosa 24G1 tracheal isolates from mechanically ventilated chronic respiratory insufficiency patient
Pseudomonas aeruginosa [16] = experiment: Antimicrobial activity against Pseudomonas aeruginosa 65.33-1 tracheal isolates from mechanically ventilated tuberculosis patient
Pseudomonas aeruginosa [17] = experiment: Antimicrobial activity against Pseudomonas aeruginosa 29G6 tracheal isolates from mechanically ventilated chronic respiratory insufficiency patient
Pseudomonas aeruginosa [18] = experiment: Antimicrobial activity against Pseudomonas aeruginosa 2C1 tracheal isolates from mechanically ventilated tuberculosis patient
Pseudomonas aeruginosa [19] = experiment: Antimicrobial activity against Pseudomonas aeruginosa 65.68-1 tracheal isolates from mechanically ventilated tuberculosis patient
Pseudomonas aeruginosa [20] = experiment: Antimicrobial activity against Pseudomonas aeruginosa 9B2 tracheal isolates from mechanically ventilated chronic respiratory insufficiency patient
Pseudomonas aeruginosa [21] = experiment: Antimicrobial activity against Pseudomonas aeruginosa 3D10 tracheal isolates from mechanically ventilated chronic respiratory insufficiency patient
Pseudomonas aeruginosa [22] = experiment: Antimicrobial activity against Pseudomonas aeruginosa 10A9 tracheal isolates from mechanically ventilated chronic respiratory insufficiency patient
Pseudomonas aeruginosa [23] = experiment: Antimicrobial activity against Pseudomonas aeruginosa 10B3 tracheal isolates from mechanically ventilated chronic respiratory insufficiency patient
Pseudomonas aeruginosa [24] = experiment: Antimicrobial activity against Pseudomonas aeruginosa 8A12 tracheal isolates from mechanically ventilated chronic respiratory insufficiency patient
Pseudomonas aeruginosa [25] = experiment: Antimicrobial activity against Pseudomonas aeruginosa 3B1 tracheal isolates from mechanically ventilated tuberculosis patient
Pseudomonas aeruginosa [26] = experiment: Antimicrobial activity against Pseudomonas aeruginosa 16D5 tracheal isolates from mechanically ventilated chronic respiratory insufficiency patient
Pseudomonas aeruginosa [27] = experiment: Antimicrobial activity against Pseudomonas aeruginosa 19E9 tracheal isolates from mechanically ventilated chronic respiratory insufficiency patient
Pseudomonas aeruginosa [28] = experiment: Antimicrobial activity against Pseudomonas aeruginosa 65.33-2 tracheal isolates from mechanically ventilated tuberculosis patient
Pseudomonas aeruginosa [29] = experiment: Antimicrobial activity against Pseudomonas aeruginosa 10B1 tracheal isolates from mechanically ventilated chronic respiratory insufficiency patient
Pseudomonas aeruginosa [30] = experiment: Antimicrobial activity against Pseudomonas aeruginosa 12B2 tracheal isolates from mechanically ventilated chronic respiratory insufficiency patient
Pseudomonas aeruginosa [31] = experiment: Antimicrobial activity against Pseudomonas aeruginosa 29G7 tracheal isolates from mechanically ventilated chronic respiratory insufficiency patient
Pseudomonas aeruginosa [32] = experiment: Antimicrobial activity against Pseudomonas aeruginosa 65.18-4 tracheal isolates from mechanically ventilated tuberculosis patient
Pseudomonas aeruginosa [33] = experiment: Antimicrobial activity against Pseudomonas aeruginosa 9A3 tracheal isolates from mechanically ventilated chronic respiratory insufficiency patient
Pseudomonas aeruginosa [34] = experiment: Antimicrobial activity against Pseudomonas aeruginosa 65.33-4 tracheal isolates from mechanically ventilated tuberculosis patient
Pseudomonas aeruginosa [35] = experiment: Antimicrobial activity against Pseudomonas aeruginosa 2A5 tracheal isolates from mechanically ventilated chronic respiratory insufficiency patient
Pseudomonas aeruginosa [36] = experiment: Antimicrobial activity against Pseudomonas aeruginosa 3D1 tracheal isolates from mechanically ventilated chronic respiratory insufficiency patient
Pseudomonas aeruginosa [37] = experiment: Antimicrobial activity against Pseudomonas aeruginosa 9B5 tracheal isolates from mechanically ventilated chronic respiratory insufficiency patient
Pseudomonas aeruginosa [38] = experiment: Antimicrobial activity against Pseudomonas aeruginosa 22C5 tracheal isolates from mechanically ventilated chronic respiratory insufficiency patient
Pseudomonas aeruginosa [39] = experiment: Antimicrobial activity against Pseudomonas aeruginosa 1A9 tracheal isolates from mechanically ventilated tuberculosis patient
Pseudomonas aeruginosa [40] = experiment: Antimicrobial activity against Pseudomonas aeruginosa 2C2 tracheal isolates from mechanically ventilated tuberculosis patient
Pseudomonas aeruginosa [41] = experiment: Antimicrobial activity against Pseudomonas aeruginosa 15H5 tracheal isolates from mechanically ventilated chronic respiratory insufficiency patient
Pseudomonas aeruginosa [42] = experiment: Antimicrobial activity against Pseudomonas aeruginosa 29G8 tracheal isolates from mechanically ventilated chronic respiratory insufficiency patient
Pseudomonas aeruginosa [43] = experiment: Antimicrobial activity against Pseudomonas aeruginosa 5H6 tracheal isolates from mechanically ventilated chronic respiratory insufficiency patient
Pseudomonas aeruginosa [44] = experiment: Antimicrobial activity against Pseudomonas aeruginosa 29F6 tracheal isolates from mechanically ventilated chronic respiratory insufficiency patient
Pseudomonas aeruginosa [45] = experiment: Antimicrobial activity against Pseudomonas aeruginosa 12A3 tracheal isolates from mechanically ventilated chronic respiratory insufficiency patient
Pseudomonas aeruginosa [46] = experiment: Antimicrobial activity against Pseudomonas aeruginosa 10A6 tracheal isolates from mechanically ventilated chronic respiratory insufficiency patient
Pseudomonas aeruginosa [47] = experiment: Antimicrobial activity against Pseudomonas aeruginosa 19D9 tracheal isolates from mechanically ventilated chronic respiratory insufficiency patient
Pseudomonas aeruginosa [48] = experiment: Antimicrobial activity against Pseudomonas aeruginosa 9A10 tracheal isolates from mechanically ventilated chronic respiratory insufficiency patient
Pseudomonas aeruginosa [49] = experiment: Antimicrobial activity against Pseudomonas aeruginosa 19E2 tracheal isolates from mechanically ventilated chronic respiratory insufficiency patient
Pseudomonas aeruginosa [50] = experiment: Antimicrobial activity against Pseudomonas aeruginosa 2F6 tracheal isolates from mechanically ventilated tuberculosis patient
Pseudomonas aeruginosa [51] = experiment: Antimicrobial activity against Pseudomonas aeruginosa 2A2 tracheal isolates from mechanically ventilated tuberculosis patient
Pseudomonas aeruginosa [52] = experiment: Antimicrobial activity against Pseudomonas aeruginosa P21.23 tracheal isolates from mechanically ventilated tuberculosis patient
Pseudomonas aeruginosa [53] = experiment: Antimicrobial activity against Pseudomonas aeruginosa 65.38-1 tracheal isolates from mechanically ventilated tuberculosis patient
Pseudomonas aeruginosa [54] = experiment: Antimicrobial activity against Pseudomonas aeruginosa 65.68-3 tracheal isolates from mechanically ventilated tuberculosis patient
Pseudomonas aeruginosa [55] = experiment: Antimicrobial activity against Pseudomonas aeruginosa 9A1 tracheal isolates from mechanically ventilated chronic respiratory insufficiency patient
Pseudomonas aeruginosa [56] = experiment: Antimicrobial activity against Pseudomonas aeruginosa 19B6 tracheal isolates from mechanically ventilated chronic respiratory insufficiency patient
Pseudomonas aeruginosa [57] = experiment: Antimicrobial activity against Pseudomonas aeruginosa 2A6 tracheal isolates from mechanically ventilated tuberculosis patient
Pseudomonas aeruginosa [58] = experiment: Antimicrobial activity against Pseudomonas aeruginosa 65.38-3 tracheal isolates from mechanically ventilated tuberculosis patient
Pseudomonas aeruginosa [59] = experiment: Antimicrobial activity against Pseudomonas aeruginosa 2A9 tracheal isolates from mechanically ventilated tuberculosis patient

SMILES: CO/N=C(\C(=O)N[C@@H]1C(=O)N2C(C(=O)[O-])=C(C[N+]3(C)CCCC3)CS[C@H]12)c1csc(N)n1
- Activity (Pseudomonas aeruginosa [1]): Active
- Activity (Pseudomonas aeruginosa [2]): Active
- Activity (Pseudomonas aeruginosa [3]): inactive
- Activity (Pseudomonas aeruginosa [4]): Active
- Activity (Pseudomonas aeruginosa [5]): Active
- Activity (Pseudomonas aeruginosa [6]): Active
- Activity (Pseudomonas aeruginosa [7]): Active
- Activity (Pseudomonas aeruginosa [8]): Active
- Activity (Pseudomonas aeruginosa [9]): inactive
- Activity (Pseudomonas aeruginosa [10]): Active
- Activity (Pseudomonas aeruginosa [11]): Active
- Activity (Pseudomonas aeruginosa [12]): Active
- Activity (Pseudomonas aeruginosa [13]): Active
- Activity (Pseudomonas aeruginosa [14]): Active
- Activity (Pseudomonas aeruginosa [15]): Active
- Activity (Pseudomonas aeruginosa [16]): Active
- Activity (Pseudomonas aeruginosa [17]): Active
- Activity (Pseudomonas aeruginosa [18]): inactive
- Activity (Pseudomonas aeruginosa [19]): Active
- Activity (Pseudomonas aeruginosa [20]): Active
- Activity (Pseudomonas aeruginosa [21]): Active
- Activity (Pseudomonas aeruginosa [22]): Active
- Activity (Pseudomonas aeruginosa [23]): Active
- Activity (Pseudomonas aeruginosa [24]): Active
- Activity (Pseudomonas aeruginosa [25]): Active
- Activity (Pseudomonas aeruginosa [26]): Active
- Activity (Pseudomonas aeruginosa [27]): Active
- Activity (Pseudomonas aeruginosa [28]): Active
- Activity (Pseudomonas aeruginosa [29]): Active
- Activity (Pseudomonas aeruginosa [30]): Active
- Activity (Pseudomonas aeruginosa [31]): Active
- Activity (Pseudomonas aeruginosa [32]): Active
- Activity (Pseudomonas aeruginosa [33]): Active
- Activity (Pseudomonas aeruginosa [34]): Active
- Activity (Pseudomonas aeruginosa [35]): Active
- Activity (Pseudomonas aeruginosa [36]): Active
- Activity (Pseudomonas aeruginosa [37]): Active
- Activity (Pseudomonas aeruginosa [38]): Active
- Activity (Pseudomonas aeruginosa [39]): Active
- Activity (Pseudomonas aeruginosa [40]): Active
- Activity (Pseudomonas aeruginosa [41]): Active
- Activity (Pseudomonas aeruginosa [42]): Active
- Activity (Pseudomonas aeruginosa [43]): Active
- Activity (Pseudomonas aeruginosa [44]): Active
- Activity (Pseudomonas aeruginosa [45]): Active
- Activity (Pseudomonas aeruginosa [46]): Active
- Activity (Pseudomonas aeruginosa [47]): Active
- Activity (Pseudomonas aeruginosa [48]): Active
- Activity (Pseudomonas aeruginosa [49]): Active
- Activity (Pseudomonas aeruginosa [50]): inactive
- Activity (Pseudomonas aeruginosa [51]): Active
- Activity (Pseudomonas aeruginosa [52]): Active
- Activity (Pseudomonas aeruginosa [53]): inactive
- Activity (Pseudomonas aeruginosa [54]): Active
- Activity (Pseudomonas aeruginosa [55]): Active
- Activity (Pseudomonas aeruginosa [56]): Active

SMILES: CCn1cc(C(=O)O)c(=O)c2cc(F)c(N3CCNCC3)cc21
- Activity (Pseudomonas aeruginosa [1]): Active
- Activity (Pseudomonas aeruginosa [2]): Active
- Activity (Pseudomonas aeruginosa [3]): Active
- Activity (Pseudomonas aeruginosa [4]): Active
- Activity (Pseudomonas aeruginosa [57]): Active
- Activity (Pseudomonas aeruginosa [5]): Active
- Activity (Pseudomonas aeruginosa [6]): Active
- Activity (Pseudomonas aeruginosa [7]): Active
- Activity (Pseudomonas aeruginosa [8]): Active
- Activity (Pseudomonas aeruginosa [9]): Active
- Activity (Pseudomonas aeruginosa [10]): Active
- Activity (Pseudomonas aeruginosa [11]): inactive
- Activity (Pseudomonas aeruginosa [58]): Active
- Activity (Pseudomonas aeruginosa [12]): Active
- Activity (Pseudomonas aeruginosa [13]): Active
- Activity (Pseudomonas aeruginosa [14]): Active
- Activity (Pseudomonas aeruginosa [15]): Active
- Activity (Pseudomonas aeruginosa [16]): Active
- Activity (Pseudomonas aeruginosa [17]): Active
- Activity (Pseudomonas aeruginosa [18]): Active
- Activity (Pseudomonas aeruginosa [19]): Active
- Activity (Pseudomonas aeruginosa [20]): Active
- Activity (Pseudomonas aeruginosa [21]): Active
- Activity (Pseudomonas aeruginosa [59]): Active
- Activity (Pseudomonas aeruginosa [22]): Active
- Activity (Pseudomonas aeruginosa [23]): Active
- Activity (Pseudomonas aeruginosa [24]): Active
- Activity (Pseudomonas aeruginosa [25]): Active
- Activity (Pseudomonas aeruginosa [26]): Active
- Activity (Pseudomonas aeruginosa [27]): Active
- Activity (Pseudomonas aeruginosa [28]): Active
- Activity (Pseudomonas aeruginosa [29]): Active
- Activity (Pseudomonas aeruginosa [30]): Active
- Activity (Pseudomonas aeruginosa [31]): Active
- Activity (Pseudomonas aeruginosa [32]): Active
- Activity (Pseudomonas aeruginosa [33]): Active
- Activity (Pseudomonas aeruginosa [34]): Active
- Activity (Pseudomonas aeruginosa [35]): Active
- Activity (Pseudomonas aeruginosa [36]): Active
- Activity (Pseudomonas aeruginosa [37]): Active
- Activity (Pseudomonas aeruginosa [38]): Active
- Activity (Pseudomonas aeruginosa [39]): Active
- Activity (Pseudomonas aeruginosa [40]): Active
- Activity (Pseudomonas aeruginosa [41]): Active
- Activity (Pseudomonas aeruginosa [42]): Active
- Activity (Pseudomonas aeruginosa [43]): Active
- Activity (Pseudomonas aeruginosa [44]): Active
- Activity (Pseudomonas aeruginosa [45]): Active
- Activity (Pseudomonas aeruginosa [46]): Active
- Activity (Pseudomonas aeruginosa [47]): inactive
- Activity (Pseudomonas aeruginosa [48]): Active
- Activity (Pseudomonas aeruginosa [49]): Active
- Activity (Pseudomonas aeruginosa [50]): Active
- Activity (Pseudomonas aeruginosa [51]): Active
- Activity (Pseudomonas aeruginosa [52]): Active
- Activity (Pseudomonas aeruginosa [53]): Active
- Activity (Pseudomonas aeruginosa [54]): Active
- Activity (Pseudomonas aeruginosa [55]): Active
- Activity (Pseudomonas aeruginosa [56]): Active
